Data as given in patent publication US20260262643A1, “HERBICIDAL BENZOXAZINES” (FMC CORPORATION, priority 2022, published 2026).

Assays:
wheat [1] = assay: Test A preemergence; assay type: in vivo, Triticum aestivum
Summary of the method: (§1)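 Greenhouse pot test, 10 days. Compound (non-phytotoxic solvent, surfactant) sprayed on soil at seeding or on seedlings at one- to two-leaf stage. Visual injury rated 0–100 against untreated plants.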

sedge, umbrella = assay: Test B flooded paddy test; assay type: in vivo, Cyperus difformis; details: 250 g ai/ha, Flood, 13 days, 0 to 100 scale (0 no effect, 100 complete control)
Summary of the method: (§2)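 Percent weed or crop control, judged by eye on a 0–100 scale 13 days post-treatment, reflects compound added to a 3 cm flood maintained over 2-leaf plants in the greenhouse. Missing entries are marked with a dash.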

goosegrass [2] = assay: Test A postemergence; assay type: in vivo, Eleusine indica; details: postemergence, 10 days, visual injury, 0 to 100 scale (0 no effect, 100 complete control)
Summary of the method: as §1

foxtail, giant [3] = assay: Test A postemergence; assay type: in vivo, Setaria faberi; details: postemergence, 10 days, visual injury, 0 to 100 scale (0 no effect, 100 complete control)
Summary of the method: as §1

ryegrass, Italian [4] = assay: Test A preemergence; assay type: in vivo, Lolium multiflorum
Summary of the method: as §1

pigweed, palmer [5] = assay: Test A preemergence; assay type: in vivo, Amaranthus palmeri
Summary of the method: as §1

oat, wild [6] = assay: Test A postemergence; assay type: in vivo, Avena fatua; details: 500 g ai/ha, postemergence, 10 days, visual injury, 0 to 100 scale (0 no effect, 100 complete control)
Summary of the method: as §1

ducksalad = assay: Test B flooded paddy test; assay type: in vivo, Heteranthera limosa; details: 250 g ai/ha, Flood, 13 days, 0 to 100 scale (0 no effect, 100 complete control)
Summary of the method: as §2

goosegrass [7] = assay: Test A preemergence; assay type: in vivo, Eleusine indica
Summary of the method: as §1

ryegrass, Italian [8] = assay: Test A postemergence; assay type: in vivo, Lolium multiflorum; details: 500 g ai/ha, postemergence, 10 days, visual injury, 0 to 100 scale (0 no effect, 100 complete control)
Summary of the method: as §1

barnyardgrass = assay: Test B flooded paddy test; assay type: in vivo, Echinochloa crus-galli; details: 250 g ai/ha, Flood, 13 days, 0 to 100 scale (0 no effect, 100 complete control)
Summary of the method: as §2

blackgrass [9] = assay: Test A preemergence; assay type: in vivo, Alopecurus myosuroides
Summary of the method: as §1

kochia [10] = assay: Test A preemergence; assay type: in vivo, Bassia scoparia
Summary of the method: as §1

wheat [11] = assay: Test A postemergence; assay type: in vivo, Triticum aestivum; details: 500 g ai/ha, postemergence, 10 days, visual injury, 0 to 100 scale (0 no effect, 100 complete control)
Summary of the method: as §1

oat, wild [12] = assay: Test A preemergence; assay type: in vivo, Avena fatua
Summary of the method: as §1

corn [13] = assay: Test A postemergence; assay type: in vivo, Zea mays; details: postemergence, 10 days, visual injury, 0 to 100 scale (0 no effect, 100 complete control)
Summary of the method: as §1

soybean [14] = assay: Test A preemergence; assay type: in vivo, Glycine max
Summary of the method: as §1

galium = assay: Test A postemergence; assay type: in vivo, Galium aparine; details: postemergence, 10 days, visual injury, 0 to 100 scale (0 no effect, 100 complete control)
Summary of the method: as §1

corn [15] = assay: Test A preemergence; assay type: in vivo, Zea mays
Summary of the method: as §1

pigweed, palmer [16] = assay: Test A postemergence; assay type: in vivo, Amaranthus palmeri; details: 500 g ai/ha, postemergence, 10 days, visual injury, 0 to 100 scale (0 no effect, 100 complete control)
Summary of the method: as §1

horseweed = assay: Test A postemergence; assay type: in vivo, Erigeron canadensis; details: postemergence, 10 days, visual injury, 0 to 100 scale (0 no effect, 100 complete control)
Summary of the method: as §1

ragweed [17] = assay: Test A postemergence; assay type: in vivo, Ambrosia artemisiifolia; details: 500 g ai/ha, postemergence, 10 days, visual injury, 0 to 100 scale (0 no effect, 100 complete control)
Summary of the method: as §1

kochia [18] = assay: Test A postemergence; assay type: in vivo, Bassia scoparia; details: postemergence, 10 days, visual injury, 0 to 100 scale (0 no effect, 100 complete control)
Summary of the method: as §1

rice = assay: Test B flooded paddy test; assay type: in vivo, Oryza sativa; details: 250 g ai/ha, Flood, 13 days, 0 to 100 scale (0 no effect, 100 complete control)
Summary of the method: as §2

foxtail, giant [19] = assay: Test A preemergence; assay type: in vivo, Setaria faberi
Summary of the method: as §1

soybean [20] = assay: Test A postemergence; assay type: in vivo, Glycine max; details: 500 g ai/ha, postemergence, 10 days, visual injury, 0 to 100 scale (0 no effect, 100 complete control)
Summary of the method: as §1

ragweed [21] = assay: Test A preemergence; assay type: in vivo, Ambrosia artemisiifolia
Summary of the method: as §1

blackgrass [22] = assay: Test A postemergence; assay type: in vivo, Alopecurus myosuroides
Summary of the method: as §1

[23] = 125 g ai/ha, visual injury after 10 days, 0 to 100 scale, 0 is no effect, 100 is complete control
[24] = 500 g ai/ha, 0 to 100 scale (0 no effect, 100 complete control), 10 days
[25] = 125 g ai/ha, postemergence, 10 days, visual injury, 0 to 100 scale (0 no effect, 100 complete control)
[26] = 500 g ai/ha, Postemergence, 0 to 100 scale

Cc1cccc2c1O[C@@H](C)CN2C(=O)c1cccc(-n2cnc(C(F)(F)F)n2)c1 [Compound 66]
20: Plant response rating, Wheat (wheat [1]; [23]) | Plant response rating, Foxtail, Giant (foxtail, giant [3]; 125 g ai/ha) | Plant response rating, Wheat (wheat [11])
70: Plant response rating, Oat, Wild (oat, wild [6]) | Plant response rating, Ryegrass, Italian (ryegrass, Italian [8]) | Plant response rating, Blackgrass (blackgrass [9]; [23]) | Plant response rating, Corn (corn [13]; 500 g ai/ha)
50: Plant response rating, Goosegrass (goosegrass [2]; 500 g ai/ha) | Plant response rating, Pigweed, Palmer (pigweed, palmer [5]; [23]) | Plant response rating, Corn (corn [15]; [24])
100: Plant response rating, Ryegrass, Italian (ryegrass, Italian [4]; [23]) | Plant response rating, Ryegrass, Italian (ryegrass, Italian [4]; [24]) | Plant response rating, Pigweed, Palmer (pigweed, palmer [5]; [24]) | Plant response rating, Goosegrass (goosegrass [7]; [23]) | Plant response rating, Goosegrass (goosegrass [7]; [24]) | Plant response rating, Galium (galium; 500 g ai/ha) | Plant response rating, Foxtail, Giant (foxtail, giant [19]; [24]) | Plant response rating, Soybean (soybean [20])
30: Plant response rating, Oat, Wild (oat, wild [12]; [23]) | Plant response rating, Soybean (soybean [14]; [23]) | Plant response rating, Corn (corn [15]; [23]) | Plant response rating, Pigweed, Palmer (pigweed, palmer [16]) | Plant response rating, Kochia (kochia [18]; 125 g ai/ha)
0: Plant response rating, Sedge, Umbrella (sedge, umbrella) | Plant response rating, Ducksalad (ducksalad) | Plant response rating, Barnyardgrass (barnyardgrass) | Plant response rating, Corn (corn [13]; 125 g ai/ha) | Plant response rating, Horseweed (horseweed; 125 g ai/ha) | Plant response rating, Horseweed (horseweed; 500 g ai/ha) | Plant response rating, Rice (rice) | Plant response rating, Ragweed (ragweed [21]; [23]) | Plant response rating, Ragweed (ragweed [21]; [24])
80: Plant response rating, Wheat (wheat [1]; [24]) | Plant response rating, Galium (galium; 125 g ai/ha) | Plant response rating, Kochia (kochia [18]; 500 g ai/ha)
90: Plant response rating, Foxtail, Giant (foxtail, giant [3]; 500 g ai/ha) | Plant response rating, Blackgrass (blackgrass [9]; [24]) | Plant response rating, Kochia (kochia [10]; [24]) | Plant response rating, Oat, Wild (oat, wild [12]; [24]) | Plant response rating, Foxtail, Giant (foxtail, giant [19]; [23]) | Plant response rating, Blackgrass (blackgrass [22]; [26])
40: Plant response rating, Soybean (soybean [14]; [24]) | Plant response rating, Ragweed (ragweed [17])
10: Plant response rating, Goosegrass (goosegrass [2]; 125 g ai/ha) | Plant response rating, Kochia (kochia [10]; [23])
60: Plant response rating, Blackgrass (blackgrass [22]; [25])

Cc1ccc(-n2cnc(C3CC3)n2)cc1C(=O)N1C[C@H](C)Oc2c(Cl)cccc21 [Compound 67]
0: Plant response rating, Barnyardgrass (barnyardgrass) | Plant response rating, Rice (rice) | Plant response rating, Ragweed (ragweed [21]; [23])
10: Plant response rating, Wheat (wheat [1]; [23])
90: Plant response rating, Foxtail, Giant (foxtail, giant [3]; 500 g ai/ha) | Plant response rating, Blackgrass (blackgrass [9]; [24]) | Plant response rating, Oat, Wild (oat, wild [12]; [24]) | Plant response rating, Pigweed, Palmer (pigweed, palmer [16]) | Plant response rating, Blackgrass (blackgrass [22]; [26])
30: Plant response rating, Wheat (wheat [1]; [24]) | Plant response rating, Goosegrass (goosegrass [2]; 125 g ai/ha) | Plant response rating, Ducksalad (ducksalad) | Plant response rating, Wheat (wheat [11]) | Plant response rating, Oat, Wild (oat, wild [12]; [23]) | Plant response rating, Horseweed (horseweed; 125 g ai/ha) | Plant response rating, Horseweed (horseweed; 500 g ai/ha) | Plant response rating, Ragweed (ragweed [21]; [24])
75: Plant response rating, Sedge, Umbrella (sedge, umbrella)
80: Plant response rating, Blackgrass (blackgrass [9]; [23]) | Plant response rating, Kochia (kochia [10]; [23])
70: Plant response rating, Goosegrass (goosegrass [2]; 500 g ai/ha) | Plant response rating, Soybean (soybean [14]; [24]) | Plant response rating, Ragweed (ragweed [17]) | Plant response rating, Kochia (kochia [18]; 125 g ai/ha) | Plant response rating, Blackgrass (blackgrass [22]; [25])
50: Plant response rating, Foxtail, Giant (foxtail, giant [3]; 125 g ai/ha) | Plant response rating, Soybean (soybean [14]; [23]) | Plant response rating, Corn (corn [15]; [24])
40: Plant response rating, Corn (corn [15]; [23])
60: Plant response rating, Oat, Wild (oat, wild [6]) | Plant response rating, Corn (corn [13]; 125 g ai/ha) | Plant response rating, Corn (corn [13]; 500 g ai/ha)
100: Plant response rating, Ryegrass, Italian (ryegrass, Italian [4]; [23]) | Plant response rating, Ryegrass, Italian (ryegrass, Italian [4]; [24]) | Plant response rating, Pigweed, Palmer (pigweed, palmer [5]; [23]) | Plant response rating, Pigweed, Palmer (pigweed, palmer [5]; [24]) | Plant response rating, Goosegrass (goosegrass [7]; [23]) | Plant response rating, Goosegrass (goosegrass [7]; [24]) | Plant response rating, Ryegrass, Italian (ryegrass, Italian [8]) | Plant response rating, Kochia (kochia [10]; [24]) | Plant response rating, Galium (galium; 125 g ai/ha) | Plant response rating, Galium (galium; 500 g ai/ha) | Plant response rating, Kochia (kochia [18]; 500 g ai/ha) | Plant response rating, Foxtail, Giant (foxtail, giant [19]; [23]) | Plant response rating, Foxtail, Giant (foxtail, giant [19]; [24]) | Plant response rating, Soybean (soybean [20])
